Experimental data: PubChem BioAssay (NCI)
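Protocol summary: plate cells (96-well), add compound at 5 concentrations, incubate 48 h, interpolate endpoints linearly. TGI is the concentration that stops growth completely.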

What was measured:
Experiment in all cases: NCI-60 cell line screen, 48 h
TK-10 renal = system: TK-10 renal
SF-268 CNS = system: SF-268 CNS
SK-OV-3 ovarian = system: SK-OV-3 ovarian
HCC-2998 colon = system: HCC-2998 colon
HOP-62 NSCLC = system: HOP-62 NSCLC
UACC-62 melanoma = system: UACC-62 melanoma
COLO 205 colon = system: COLO 205 colon
MOLT-4 leukemia = system: MOLT-4 leukemia
OVCAR-4 ovarian = system: OVCAR-4 ovarian
SR leukemia = system: SR leukemia

Structure (SMILES) | TGI (TK-10 renal) [µM] | TGI (SF-268 CNS) [µM] | TGI (SK-OV-3 ovarian) [µM] | TGI (HCC-2998 colon) [µM] | TGI (HOP-62 NSCLC) [µM] | TGI (UACC-62 melanoma) [µM] | TGI (COLO 205 colon) [µM] | TGI (MOLT-4 leukemia) [µM] | TGI (OVCAR-4 ovarian) [µM] | TGI (SR leukemia) [µM]
COc1ccc2c(c1)CC1=C(O2)c2ccc(OC)cc2OC1 | 46.3 | 68.5 | > 100 | > 100 | > 100 | 39.2 | 33.8 | > 100 | 90.1 | > 100
COc1cc(CN2CCCCC2)cc2cc(C(=O)O)c(=O)oc12 | > 100 | > 100 | > 100 | > 100 | > 100 | > 100 | > 100 | > 100 | > 100 | > 100
CCOC(=O)C(CC#Cc1ccc(C#CCC(NC(C)=O)C(=O)OCC)cc1)NC(C)=O (stereo not given) | > 100 | > 100 | > 100 | > 100 | > 100 | > 100 | > 100 | > 100 | > 100 | > 100
COc1c(Br)cc(CC(N)=O)c(O)c1Br | > 100 | > 100 | > 100 | > 100 | > 100 | > 100 | > 100 | > 100 | > 100 | > 100
Brc1ccc2c(-c3csc(-c4c[nH]c5ccc(Br)cc45)n3)c[nH]c2c1 | 15.2 | 13.2 | 24.2 | 5.51 | 27.1 | 9.2 | > 26.7 | > 22.4 | 23.9 | > 100
COc1cc2c(/C=C3/C(=O)Nc4ccccc43)c(Cl)[nH]c2cc1C | 21.7 | 18.5 | 0.141 | 0.982 | 26.4 | 15.5 | 1.73 | 14.2 | 21.1 | 10.1
